Laboratory results from ChEMBL document CHEMBL1795319, “Design, synthesis and antifungal evaluation of 1-(2-(2,4-difluorophenyl)-2-hydroxy-3-(1H-1,2,4-triazol-1-yl)propyl)-1H-1,2,4-triazol-5(4H)-one” (2011).
Values after ≈ are worked out from the molar mass of the structure shown.

Legend:
Format in all cases: functional
[1] = tested on: Candida tropicalis; test: Antifungal activity against Candida tropicalis by micro-broth dilution method
[2] = tested on: Kluyveromyces marxianus; test: Antifungal activity against Candida kefyr by micro-broth dilution method
[3] = tested on: Cryptococcus neoformans; test: Antifungal activity against Cryptococcus neoformans BLS108 after 72 hrs by micro-broth dilution method; conditions: BLS108, 72 h
[4] = tested on: Aspergillus fumigatus; test: Antifungal activity against Aspergillus fumigatus by broth microdilution method
[5] = tested on: Candida parapsilosis; test: Antifungal activity against Candida parapsilosis by micro-broth dilution method; conditions: Lodderomyces parapsilosis
[6] = tested on: Candida albicans; test: Antifungal activity against Candida albicans SC5314 after 24 hrs by micro-broth dilution method; conditions: SC5314, 24 h
[7] = tested on: Trichophyton rubrum; test: Antifungal activity against Trichophyton rubrum by micro-broth dilution method
[8] = tested on: Candida albicans; test: Antifungal activity against Candida albicans Y0109 after 24 hrs by micro-broth dilution method; conditions: Y0109, 24 h

SMILES | MIC80 [1] | MIC80 [2] | MIC80 [3] | MIC80 [4] | MIC80 [5] | MIC80 [6] | MIC80 [7] | MIC80 [8]
N#Cc1cccc(-n2cnn(CC(O)(Cn3cncn3)c3ccc(F)cc3F)c2=O)c1 (racemic) | 0.00024 µg/mL (≈ 0.000567 µM) | 0.00024 µg/mL (≈ 0.000567 µM) | 0.25 µg/mL (≈ 0.59 µM) | > 64 µg/mL | 0.00024 µg/mL (≈ 0.000567 µM) | 0.00024 µg/mL (≈ 0.000567 µM) | 4 µg/mL (≈ 9.45 µM) | 0.00024 µg/mL (≈ 0.000567 µM)
COc1ccc(-n2cnn(CC(O)(Cn3cncn3)c3ccc(F)cc3F)c2=O)cc1 (racemic) | 0.0625 µg/mL (≈ 0.146 µM) | 0.0625 µg/mL (≈ 0.146 µM) | 16 µg/mL (≈ 37.3 µM) | > 64 µg/mL | 1 µg/mL (≈ 2.33 µM) | 1 µg/mL (≈ 2.33 µM) | 16 µg/mL (≈ 37.3 µM) | 0.0625 µg/mL (≈ 0.146 µM)
O=C(Nc1ccc(-n2cnn(CC(O)(Cn3cncn3)c3ccc(F)cc3F)c2=O)cc1)c1cccnc1 (racemic) | 4 µg/mL (≈ 7.71 µM) | 16 µg/mL (≈ 30.9 µM) | 64 µg/mL (≈ 123 µM) | > 64 µg/mL | 1 µg/mL (≈ 1.93 µM) | 1 µg/mL (≈ 1.93 µM) | 64 µg/mL (≈ 123 µM) | 1 µg/mL (≈ 1.93 µM)
O=c1n(-c2ccccc2)cnn1CC(O)(Cn1cncn1)c1ccc(F)cc1F (racemic) | 0.25 µg/mL (≈ 0.628 µM) | 0.25 µg/mL (≈ 0.628 µM) | 64 µg/mL (≈ 161 µM) | > 64 µg/mL | 4 µg/mL (≈ 10 µM) | 1 µg/mL (≈ 2.51 µM) | 16 µg/mL (≈ 40.2 µM) | 0.25 µg/mL (≈ 0.628 µM)
N#Cc1ccc(-n2cnn(CC(O)(Cn3cncn3)c3ccc(F)cc3F)c2=O)cc1 (racemic) | 4 µg/mL (≈ 9.45 µM) | 16 µg/mL (≈ 37.8 µM) | > 64 µg/mL | > 64 µg/mL | 1 µg/mL (≈ 2.36 µM) | 1 µg/mL (≈ 2.36 µM) | 64 µg/mL (≈ 151 µM) | 1 µg/mL (≈ 2.36 µM)
O=C(Nc1ccc(-n2cnn(CC(O)(Cn3cncn3)c3ccc(F)cc3F)c2=O)cc1)C1CCCCC1 (racemic) | > 64 µg/mL | > 64 µg/mL | > 64 µg/mL | > 64 µg/mL | > 64 µg/mL | > 64 µg/mL | 16 µg/mL (≈ 30.6 µM) | > 64 µg/mL
N#CCC(=O)Nc1ccc(-n2cnn(CC(O)(Cn3cncn3)c3ccc(F)cc3F)c2=O)cc1 (racemic) | 1 µg/mL (≈ 2.08 µM) | > 64 µg/mL | > 64 µg/mL | > 64 µg/mL | 1 µg/mL (≈ 2.08 µM) | 0.25 µg/mL (≈ 0.52 µM) | 16 µg/mL (≈ 33.3 µM) | 1 µg/mL (≈ 2.08 µM)
O=c1n(-c2nccs2)cnn1CC(O)(Cn1cncn1)c1ccc(F)cc1F (racemic) | 1 µg/mL (≈ 2.47 µM) | 1 µg/mL (≈ 2.47 µM) | 64 µg/mL (≈ 158 µM) | > 64 µg/mL | 0.25 µg/mL (≈ 0.617 µM) | 0.25 µg/mL (≈ 0.617 µM) | 16 µg/mL (≈ 39.5 µM) | 1 µg/mL (≈ 2.47 µM)
O=c1n(-c2ccc(Cl)cc2)cnn1CC(O)(Cn1cncn1)c1ccc(F)cc1F (racemic) | 0.0625 µg/mL (≈ 0.144 µM) | 0.0156 µg/mL (≈ 0.036 µM) | 64 µg/mL (≈ 148 µM) | > 64 µg/mL | 1 µg/mL (≈ 2.31 µM) | 0.0625 µg/mL (≈ 0.144 µM) | 16 µg/mL (≈ 37 µM) | 0.0625 µg/mL (≈ 0.144 µM)
OC(Cn1cncn1)(Cn1cncn1)c1ccc(F)cc1F [FLUCONAZOLE] | 1 µg/mL (≈ 3.27 µM) | 4 µg/mL (≈ 13.1 µM) | 1 µg/mL (≈ 3.27 µM) | > 64 µg/mL | 0.25 µg/mL (≈ 0.816 µM) | 0.25 µg/mL (≈ 0.816 µM) | 1 µg/mL (≈ 3.27 µM) | 0.25 µg/mL (≈ 0.816 µM)
Cc1ccc(-n2cnn(CC(O)(Cn3cncn3)c3ccc(F)cc3F)c2=O)cc1 (racemic) | 0.25 µg/mL (≈ 0.606 µM) | 0.25 µg/mL (≈ 0.606 µM) | 64 µg/mL (≈ 155 µM) | > 64 µg/mL | 4 µg/mL (≈ 9.7 µM) | 0.25 µg/mL (≈ 0.606 µM) | 64 µg/mL (≈ 155 µM) | 1 µg/mL (≈ 2.42 µM)
O=C(Nc1ccc(-n2cnn(CC(O)(Cn3cncn3)c3ccc(F)cc3F)c2=O)cc1)c1cccs1 (racemic) | 16 µg/mL (≈ 30.6 µM) | > 64 µg/mL | > 64 µg/mL | > 64 µg/mL | 4 µg/mL (≈ 7.64 µM) | 0.25 µg/mL (≈ 0.478 µM) | > 64 µg/mL | 1 µg/mL (≈ 1.91 µM)
O=C(Nc1ccc(-n2cnn(CC(O)(Cn3cncn3)c3ccc(F)cc3F)c2=O)cc1)c1ccccn1 (racemic) | > 64 µg/mL | 16 µg/mL (≈ 30.9 µM) | > 64 µg/mL | > 64 µg/mL | 4 µg/mL (≈ 7.71 µM) | 1 µg/mL (≈ 1.93 µM) | > 64 µg/mL | 4 µg/mL (≈ 7.71 µM)
CCCC(=O)Nc1ccc(-n2cnn(CC(O)(Cn3cncn3)c3ccc(F)cc3F)c2=O)cc1 (racemic) | 4 µg/mL (≈ 8.27 µM) | 16 µg/mL (≈ 33.1 µM) | > 64 µg/mL | > 64 µg/mL | 4 µg/mL (≈ 8.27 µM) | 4 µg/mL (≈ 8.27 µM) | > 64 µg/mL | 4 µg/mL (≈ 8.27 µM)
O=c1n(-c2ccc(Cl)c(Cl)c2)cnn1CC(O)(Cn1cncn1)c1ccc(F)cc1F (racemic) | 64 µg/mL (≈ 137 µM) | 16 µg/mL (≈ 34.2 µM) | 0.25 µg/mL (≈ 0.535 µM) | > 64 µg/mL | 16 µg/mL (≈ 34.2 µM) | 4 µg/mL (≈ 8.56 µM) | > 64 µg/mL | 16 µg/mL (≈ 34.2 µM)
CCC(C)n1ncn(-c2ccc(N3CCN(c4ccc(OCC5COC(Cn6cncn6)(c6ccc(Cl)cc6Cl)O5)cc4)CC3)cc2)c1=O (configuration not stated) [ITRACONAZOLE] | 0.0625 µg/mL (≈ 0.0886 µM) | 0.0625 µg/mL (≈ 0.0886 µM) | 0.0625 µg/mL (≈ 0.0886 µM) | 0.0625 µg/mL (≈ 0.0886 µM) | 0.0625 µg/mL (≈ 0.0886 µM) | 0.0625 µg/mL (≈ 0.0886 µM) | 0.0625 µg/mL (≈ 0.0886 µM) | 0.0625 µg/mL (≈ 0.0886 µM)
O=c1n(-c2ccc([N+](=O)[O-])cc2)cnn1CC(O)(Cn1cncn1)c1ccc(F)cc1F (racemic) | 0.25 µg/mL (≈ 0.564 µM) | 0.25 µg/mL (≈ 0.564 µM) | 64 µg/mL (≈ 144 µM) | > 64 µg/mL | 16 µg/mL (≈ 36.1 µM) | 1 µg/mL (≈ 2.26 µM) | 16 µg/mL (≈ 36.1 µM) | 1 µg/mL (≈ 2.26 µM)
Cc1ccnc(-n2cnn(CC(O)(Cn3cncn3)c3ccc(F)cc3F)c2=O)c1 (racemic) | 0.00024 µg/mL (≈ 0.000581 µM) | 0.0625 µg/mL (≈ 0.151 µM) | 0.00024 µg/mL (≈ 0.000581 µM) | > 64 µg/mL | 0.00024 µg/mL (≈ 0.000581 µM) | 0.00024 µg/mL (≈ 0.000581 µM) | 64 µg/mL (≈ 155 µM) | 0.00024 µg/mL (≈ 0.000581 µM)
O=c1n(-c2ccccc2Cl)cnn1CC(O)(Cn1cncn1)c1ccc(F)cc1F (racemic) | 1 µg/mL (≈ 2.31 µM) | 0.25 µg/mL (≈ 0.578 µM) | 64 µg/mL (≈ 148 µM) | > 64 µg/mL | 16 µg/mL (≈ 37 µM) | 1 µg/mL (≈ 2.31 µM) | 64 µg/mL (≈ 148 µM) | 1 µg/mL (≈ 2.31 µM)
O=C(Nc1ccc(-n2cnn(CC(O)(Cn3cncn3)c3ccc(F)cc3F)c2=O)cc1)C1CC1 (racemic) | 1 µg/mL (≈ 2.08 µM) | > 64 µg/mL | > 64 µg/mL | > 64 µg/mL | 0.25 µg/mL (≈ 0.519 µM) | 0.0625 µg/mL (≈ 0.13 µM) | > 64 µg/mL | 0.0625 µg/mL (≈ 0.13 µM)
O=c1n(-c2nc(-c3ccc(Cl)cc3Cl)cs2)cnn1CC(O)(Cn1cncn1)c1ccc(F)cc1F (racemic) | 16 µg/mL (≈ 29.1 µM) | 4 µg/mL (≈ 7.27 µM) | 64 µg/mL (≈ 116 µM) | > 64 µg/mL | 64 µg/mL (≈ 116 µM) | 16 µg/mL (≈ 29.1 µM) | 64 µg/mL (≈ 116 µM) | 16 µg/mL (≈ 29.1 µM)
CC(=O)Nc1ccc(-n2cnn(CC(O)(Cn3cncn3)c3ccc(F)cc3F)c2=O)cc1 (racemic) | 16 µg/mL (≈ 35.1 µM) | > 64 µg/mL | > 64 µg/mL | > 64 µg/mL | 16 µg/mL (≈ 35.1 µM) | 16 µg/mL (≈ 35.1 µM) | > 64 µg/mL | 4 µg/mL (≈ 8.78 µM)
CCC(=O)Nc1ccc(-n2cnn(CC(O)(Cn3cncn3)c3ccc(F)cc3F)c2=O)cc1 (racemic) | 16 µg/mL (≈ 34.1 µM) | 64 µg/mL (≈ 136 µM) | > 64 µg/mL | > 64 µg/mL | 4 µg/mL (≈ 8.52 µM) | 1 µg/mL (≈ 2.13 µM) | > 64 µg/mL | 4 µg/mL (≈ 8.52 µM)
C[C@@H](c1ncncc1F)[C@](O)(Cn1cncn1)c1ccc(F)cc1F [VORICONAZOLE] | 0.0039 µg/mL (≈ 0.0112 µM) | 0.0039 µg/mL (≈ 0.0112 µM) | 0.0039 µg/mL (≈ 0.0112 µM) | 0.0039 µg/mL (≈ 0.0112 µM) | 0.0039 µg/mL (≈ 0.0112 µM) | 0.0039 µg/mL (≈ 0.0112 µM) | 0.0156 µg/mL (≈ 0.0447 µM) | 0.0039 µg/mL (≈ 0.0112 µM)
